{"source": "BindingDB's records for patent US11566007", "about": "(Revolution Medicines, 2023)", "experiment_in_all_cases": "Biochemical Assay", "key": {"[1]": {"molecular_target": "GTPase NRas [G12C] (Homo sapiens, UniProt P01111, G12C)", "sequence (P01111 whole entry G12C)": "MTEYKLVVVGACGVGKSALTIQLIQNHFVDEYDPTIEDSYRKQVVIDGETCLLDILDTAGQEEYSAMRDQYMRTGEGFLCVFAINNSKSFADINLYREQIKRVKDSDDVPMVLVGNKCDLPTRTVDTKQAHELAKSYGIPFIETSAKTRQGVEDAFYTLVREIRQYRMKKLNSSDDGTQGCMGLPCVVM"}, "[2]": {"molecular_target": "GTPase KRas [G12S] (Homo sapiens, UniProt P01116, G12S)", "sequence (P01116 whole entry G12S, canonical isoform)": "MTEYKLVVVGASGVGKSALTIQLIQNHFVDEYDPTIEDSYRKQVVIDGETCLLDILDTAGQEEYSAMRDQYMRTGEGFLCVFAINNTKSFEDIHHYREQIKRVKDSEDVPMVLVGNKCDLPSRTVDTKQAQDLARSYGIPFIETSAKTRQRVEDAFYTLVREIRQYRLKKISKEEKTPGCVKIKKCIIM", "text": "(§1) The purpose of this biochemical assay is to measure the ability of test compounds to covalently label nucleotide-loaded K-Ras isoforms. […] Analysis of raw data may be carried out using Waters MassLynx MS software, with % bound calculated from the deconvoluted protein peaks for labeled and unlabeled K-Ras."}, "[3]": {"molecular_target": "GTPase NRas [Q61K] (Homo sapiens, UniProt P01111, Q61K)", "sequence (P01111 whole entry Q61K)": "as the sequence (P01111 whole entry G12C) above, with C12G, Q61K counted along it"}, "[4]": {"molecular_target": "GTPase NRas [Q61R] (Homo sapiens, UniProt P01111, Q61R)", "sequence (P01111 whole entry Q61R)": "as the sequence (P01111 whole entry G12C) above, with C12G, Q61R counted along it"}, "[5]": {"molecular_target": "GTPase KRas [G12C] (Homo sapiens, UniProt P01116, G12C)", "sequence (P01116 whole entry G12C)": "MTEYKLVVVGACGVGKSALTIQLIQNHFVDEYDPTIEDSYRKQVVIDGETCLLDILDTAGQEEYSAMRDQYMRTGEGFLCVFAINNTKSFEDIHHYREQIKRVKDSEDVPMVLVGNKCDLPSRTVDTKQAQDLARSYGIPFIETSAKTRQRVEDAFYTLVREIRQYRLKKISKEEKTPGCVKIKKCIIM", "text": "as §1"}, "[6]": {"molecular_target": "GTPase KRas [G12V] (Homo sapiens, UniProt P01116, G12V)", "sequence (P01116 whole entry G12V)": "as the sequence (P01116 whole entry G12C) above, with C12V counted along it", "text": "as §1"}, "[7]": {"molecular_target": "GTPase KRas [G12D] (Homo sapiens, UniProt P01116, G12D)", "sequence (P01116 whole entry G12D)": "as the sequence (P01116 whole entry G12C) above, with C12D counted along it", "text": "as §1"}, "[8]": {"molecular_target": "GTPase KRas [Q61H] (Homo sapiens, UniProt P01116, Q61H)", "sequence (P01116 whole entry Q61H)": "as the sequence (P01116 whole entry G12C) above, with C12G, Q61H counted along it", "text": "as §1"}, "[9]": {"molecular_target": "GTPase KRas [G13C] (Homo sapiens, UniProt P01116, G13C)", "sequence (P01116 whole entry G13C)": "as the sequence (P01116 whole entry G12C) above, with C12G, G13C counted along it", "text": "as §1"}}}
{"smiles": "CCn1c(-c2ccccc2CCOC)c2c3cc(ccc31)-c1cc(O)cc(c1)C[C@H](NC(=O)[C@H](C(C)C)N(C)C(=O)[C@H]1CCN(C(=O)C#CCN(C)C)C1)C(=O)N1CCC[C@H](N1)C(=O)OCC(C)(C)C2", "note": "[US11566007, Example A38]", "values": [{"measurement": "IC50", "setting": "[1]", "result": "< 10", "unit": "nM"}, {"measurement": "IC50", "setting": "[2]", "result": "1000 to 10000", "unit": "nM"}]}
{"smiles": "C=CC(=O)N1CC[C@H](C(=O)N(C)[C@H](C(=O)N[C@H]2Cc3cc(O)cc(c3)-c3ccc4c(c3)c(c(-c3cncnc3)n4CC)CC(C)(C)COC(=O)[C@@H]3CCCN(N3)C2=O)C(C)C)C1", "note": "[US11566007, Example A61]", "values": [{"measurement": "IC50", "setting": "[3]", "result": "in the range around 5.5 µM"}, {"measurement": "IC50", "setting": "[4]", "result": "> 10", "unit": "µM"}, {"measurement": "IC50", "setting": "[5]", "result": "in the range around 550 nM"}]}
{"smiles": "C=CC(=O)N1CC[C@H](C(=O)N(C)[C@H](C(=O)N[C@H]2Cc3cc(O)cc(c3)-c3ccc4c(c3)c(c(-c3cc(F)cnc3COC)n4CC)CC(C)(C)COC(=O)[C@@H]3CCCN(N3)C2=O)C(C)C)C1", "note": "[US11566007, Example A82]", "values": [{"measurement": "IC50", "setting": "[6]", "result": "in the range around 550 nM"}]}
{"smiles": "C=CC(=O)N1CC[C@H](C(=O)N(C)[C@H](C(=O)N[C@H]2Cc3cc(O)cc(c3)-c3ccc4c(c3)c(c(-c3ccncc3)n4C(C)(C)C#N)CC(C)(C)COC(=O)[C@@H]3CCCN(N3)C2=O)C(C)C)C1", "note": "[US11566007, Example A86]", "values": [{"measurement": "IC50", "setting": "[7]", "result": "in the range around 5.5 µM"}, {"measurement": "IC50", "setting": "[5]", "result": "in the range around 55 nM"}, {"measurement": "IC50", "setting": "[8]", "result": "in the range around 550 nM"}]}
{"smiles": "CCn1c(-c2cccnc2COC)c2c3cc(ccc31)-c1cc(O)cc(c1)C[C@H](NC(=O)[C@H](C(C)C)N(C)C(=O)[C@H]1CCN(C(=O)C#CCN(C)C)C1)C(=O)N1CCC[C@H](N1)C(=O)OCC(C)(C)C2", "note": "[US11566007, Example A96]", "values": [{"measurement": "IC50", "setting": "[1]", "result": "< 10", "unit": "nM"}, {"measurement": "IC50", "setting": "[9]", "result": "< 10", "unit": "nM"}, {"measurement": "IC50", "setting": "[2]", "result": "100 to 1000", "unit": "nM"}]}
